Experimental data reported in the NIST ThermoML archive (doi:10.1016/j.tca.2012.01.013).
± gives the expanded uncertainty stated by the source.

What was measured:
[1] = 101 kPa, Liquid, Vibrating tube method
[2] = refractive index (Na D-line) (dimensionless); conditions: 101.33 kPa, Liquid, Standard Abbe refractometry
[3] = xn = mol fraction of the nth substance listed; conditions: 101 kPa, Liquid, Vibrating tube method, x2 = 0
[4] = refractive index (Na D-line) (dimensionless); xn = mol fraction of the nth substance listed; conditions: 101 kPa, Liquid, Standard Abbe refractometry, x2 = 0

CCCCO [butan-1-ol]
Conditions	mass density, [1] [kg/m3]	refractive index, [2]
288.15 K	813.373 ± 0.14	1.40135 ± 0.00036
293.15 K	809.573 ± 0.14	1.39932 ± 0.00036
298.15 K	805.762 ± 0.15	1.3973 ± 0.00036
303.15 K	801.923 ± 0.15	1.39523 ± 0.00036
308.15 K	798.053 ± 0.15	1.39318 ± 0.00036
313.15 K	794.147 ± 0.15	1.3911 ± 0.00036
318.15 K	790.231 ± 0.15	1.38901 ± 0.00036
323.15 K	786.238 ± 0.15	1.38688 ± 0.00036

CCCCO [butan-1-ol] + COC(=O)CCCCC(=O)OC
Conditions	mass density, [3] [kg/m3]	refractive index, [4]
288.15 K	813.373 ± 0.14	1.40135 ± 0.00036
293.15 K	809.573 ± 0.14	1.39932 ± 0.00036
298.15 K	805.762 ± 0.15	1.3973 ± 0.00036
303.15 K	801.923 ± 0.15	1.39523 ± 0.00036
308.15 K	798.053 ± 0.15	1.39318 ± 0.00036
313.15 K	794.147 ± 0.15	1.3911 ± 0.00036
318.15 K	790.231 ± 0.15	1.38901 ± 0.00036
323.15 K	786.238 ± 0.15	1.38688 ± 0.00036

CCCCO [butan-1-ol] + COC(=O)c1ccccc1C(=O)OC
Conditions	mass density, [3] [kg/m3]	refractive index, [4]
288.15 K	813.373 ± 0.14	1.40135 ± 0.00036
293.15 K	809.573 ± 0.14	1.39932 ± 0.00036
298.15 K	805.762 ± 0.15	1.3973 ± 0.00036
303.15 K	801.923 ± 0.15	1.39523 ± 0.00036
308.15 K	798.053 ± 0.15	1.39318 ± 0.00036
313.15 K	794.147 ± 0.15	1.3911 ± 0.00036
318.15 K	790.231 ± 0.15	1.38901 ± 0.00036
323.15 K	786.238 ± 0.15	1.38688 ± 0.00036

CCC(C)O (stereo unspecified) [butan-2-ol]
Conditions	mass density, [1] [kg/m3]	refractive index, [2]
288.15 K	810.689 ± 0.24	1.39951 ± 0.0004
293.15 K	806.646 ± 0.24	1.39736 ± 0.0004
298.15 K	802.528 ± 0.24	1.39515 ± 0.0004
303.15 K	798.326 ± 0.24	1.39293 ± 0.0004
308.15 K	794.03 ± 0.24	1.39064 ± 0.0004
313.15 K	789.632 ± 0.24	1.38832 ± 0.0004
318.15 K	785.117 ± 0.24	1.38596 ± 0.0004
323.15 K	780.515 ± 0.24	1.38352 ± 0.0004

CCC(C)O (stereo unspecified) [butan-2-ol] + COC(=O)CCCCC(=O)OC
Conditions	mass density, [3] [kg/m3]	refractive index, [4]
288.15 K	810.689 ± 0.24	1.39951 ± 0.0004
293.15 K	806.646 ± 0.24	1.39736 ± 0.0004
298.15 K	802.528 ± 0.24	1.39515 ± 0.0004
303.15 K	798.326 ± 0.24	1.39293 ± 0.0004
308.15 K	794.03 ± 0.24	1.39064 ± 0.0004
313.15 K	789.632 ± 0.24	1.38832 ± 0.0004
318.15 K	785.117 ± 0.24	1.38596 ± 0.0004
323.15 K	780.515 ± 0.24	1.38352 ± 0.0004

CCC(C)O (stereo unspecified) [butan-2-ol] + COC(=O)c1ccccc1C(=O)OC
Conditions	mass density, [3] [kg/m3]	refractive index, [4]
288.15 K	810.689 ± 0.24	1.39951 ± 0.0004
293.15 K	806.646 ± 0.24	1.39736 ± 0.0004
298.15 K	802.528 ± 0.24	1.39515 ± 0.0004
303.15 K	798.326 ± 0.24	1.39293 ± 0.0004
308.15 K	794.03 ± 0.24	1.39064 ± 0.0004
313.15 K	789.632 ± 0.24	1.38832 ± 0.0004
318.15 K	785.117 ± 0.24	1.38596 ± 0.0004
323.15 K	780.515 ± 0.24	1.38352 ± 0.0004

CCC(C)=O [butanone]
Conditions	mass density, [1] [kg/m3]	refractive index, [2]
288.15 K	810.133 ± 0.15	1.38153 ± 0.00036
293.15 K	804.926 ± 0.15	1.37892 ± 0.00036
298.15 K	799.695 ± 0.15	1.37631 ± 0.00036
303.15 K	794.435 ± 0.16	1.37366 ± 0.00036
308.15 K	789.142 ± 0.16	1.37102 ± 0.00036
313.15 K	783.814 ± 0.15	1.36834 ± 0.00036
318.15 K	778.451 ± 0.15	1.36565 ± 0.00036
323.15 K	773.047 ± 0.16	1.36294 ± 0.00036

CCC(C)=O [butanone] + COC(=O)CCCCC(=O)OC
Conditions	mass density, [3] [kg/m3]	refractive index, [4]
288.15 K	810.133 ± 0.15	1.38153 ± 0.00036
293.15 K	804.926 ± 0.15	1.37892 ± 0.00036
298.15 K	799.695 ± 0.15	1.37631 ± 0.00036
303.15 K	794.435 ± 0.16	1.37366 ± 0.00036
308.15 K	789.142 ± 0.16	1.37102 ± 0.00036
313.15 K	783.814 ± 0.16	1.36834 ± 0.00036
318.15 K	778.451 ± 0.16	1.36565 ± 0.00036
323.15 K	773.047 ± 0.16	1.36294 ± 0.00036

CCC(C)=O [butanone] + COC(=O)c1ccccc1C(=O)OC
Conditions	mass density, [3] [kg/m3]	refractive index, [4]
288.15 K	810.133 ± 0.15	1.38153 ± 0.00036
293.15 K	804.926 ± 0.15	1.37892 ± 0.00036
298.15 K	799.695 ± 0.15	1.37631 ± 0.00036
303.15 K	794.435 ± 0.16	1.37366 ± 0.00036
308.15 K	789.142 ± 0.16	1.37102 ± 0.00036
313.15 K	783.814 ± 0.15	1.36834 ± 0.00036
318.15 K	778.451 ± 0.15	1.36565 ± 0.00036
323.15 K	773.047 ± 0.16	1.36294 ± 0.00036

COC(=O)c1ccccc1C(=O)OC [dimethyl 1,2-benzenedicarboxylate]
Conditions	mass density, [1] [kg/m3]	refractive index, [2]
288.15 K	1196.26 ± 0.39	1.51779 ± 0.0004
293.15 K	1191.59 ± 0.39	1.51565 ± 0.0004
298.15 K	1186.93 ± 0.39	1.51354 ± 0.0004
303.15 K	1182.28 ± 0.38	1.51146 ± 0.0004
308.15 K	1177.62 ± 0.38	1.50943 ± 0.0004
313.15 K	1172.97 ± 0.37	1.50736 ± 0.0004
318.15 K	1168.32 ± 0.37	1.50524 ± 0.0004
323.15 K	1163.67 ± 0.37	1.5032 ± 0.0004

COC(=O)CCCCC(=O)OC [dimethyl 1,6-hexanedioate]
Conditions	mass density, [1] [kg/m3]	refractive index, [2]
288.15 K	1066.79 ± 0.29	1.4305 ± 0.0004
293.15 K	1061.93 ± 0.28	1.42842 ± 0.0004
298.15 K	1057.06 ± 0.28	1.42636 ± 0.0004
303.15 K	1052.18 ± 0.28	1.42429 ± 0.0004
308.15 K	1047.31 ± 0.27	1.42222 ± 0.0004
313.15 K	1042.43 ± 0.27	1.42017 ± 0.0004
318.15 K	1037.54 ± 0.27	1.41819 ± 0.0004
323.15 K	1032.64 ± 0.26	1.41614 ± 0.0004
